# Source: US6413976B1, “Compositions and method for decreasing neuropathic pain” (Trustees of Dartmouth College, priority 1999, dated 2002)
# Assays:
# [1] = system: humans with neurodegenerative disease; settings: Alzheimer's Disease and vascular dementia; cited from earlier work
# [2] = system: spinal nerve transection in the rat; assay: Spinal nerve transection model of chronic neuropathic pain, mechanical allodynia (von Frey filaments); assay type: in vivo; settings: for mechanical allodynia: L5 spinal nerve transection, dose-dependent
# Procedure: Experiments were performed using a well-established animal model for chronic pain, spinal nerve transection in the rat. The model measures changes in mechanical allodynia, or an increased sensitivity following non-noxious stimulus, such as touch. Rats were injected intraperitdneally one day before and then daily for ten days following nerve transection. […] The effect was dose-dependent, with larger reductions seen with higher doses of the drug.
# The same model. was used with rats injected intrathecally with either saline or propentofylline (1 or 3 μg), daily for 10 days. […] The responses were also dose-dependent with the largest reduction seen at the highest dose tested.
# Surgery was performed under inhalation anesthesia using halothane in 100% oxygen at 4% and maintained at 2%. Each rat received a single unilateral lesion directed at a left L5 spinal root or spinal nerve. The nerve was identified, freed from adjacent nerves and transected. For sham lesions, a minilaminectomy was performed of the L5 vertebral segment without lesioning. Animals were allowed to recover from anesthesia and were not subjected to any additional surgical procedures or anesthesia until the end of the study when they were euthanized.
# Propentofylline was injected intraperitoneally at doses of 1 and 10 mg/kg the day before and for each day of testing (10 days). Saline injections served as a control. Other rats were injected intrathecally at doses of 1 and 3 μg on each day of testing.
# Mechanical hypersensitivity was measured as the frequency of foot withdrawals elicited by a defined mechanical stimulus. […]
# In blinded testing, rats were subjected to sequential series of 10 tactile stimulations to the plantar surface of the ipsilateral hindpaw using 2 and 12 gauge von Frey filaments (Stoelting Co., WoodDale, Ill.) sequentially. […] Mechanical sensitivity was assessed by recording the total number of responses elicited during three successive trials separated by at least 10 minutes.
# [3] = oral dosing; cited from earlier work
smiles,measurement,setting,value
"CCCn1cnc2c1c(=O)n(CCCCC(C)=O)c(=O)n2C [propentofylline, Propentofylline]",safety and efficacy in clinical trials,[1],both safe and effective
same,mechanical allodynia,"[2]; intraperitoneal 1 and 10 mg/kg, one day before and daily for ten days",significant decrease in mechanical allodynia
same,mechanical allodynia,[2]; intrathecal 1 or 3 μg daily for 10 days vs saline,significant decrease in mechanical allodynia
same,responses to stimulation (foot withdrawals to von Frey filaments),"[2]; increasing doses, both central and peripheral routes",dose-dependent decreases in responses to stimulation
same,absorption and metabolism,[3],well absorbed and extensively metabolized
